Reference: ChEMBL document CHEMBL5365487, “Development of 18F-Labeled PET Tracer Candidates for Imaging of the Abelson Non-receptor Tyrosine Kinase in Parkinson's Disease” (J Med Chem, 2023)

How the values were obtained:
[1] = Half life in C57BL6 mouse brain at 0.5 mg/kg, iv single administration measured upto 24 hrs by LC-MS/MS analysis; assay type: ADME, organism-based
[2] = Ratio of total drug brain AUC to total plasma AUC in C57BL6 mouse brain at 0.5 mg/kg, iv single administration measured upto 24 hrs by LC-MS/MS analysis; assay type: ADME, organism-based
[3] = target: Interleukin-1 receptor-associated kinase 1 (Homo sapiens) (UniProt P51617); test: Inhibition of IRAK1 (unknown origin) at 1 uM by ADP-Glo kinase assay relative to control
[4] = Ratio of free drug brain AUC to free plasma AUC in C57BL6 mouse brain at 0.5 mg/kg, iv single administration measured upto 24 hrs by LC-MS/MS analysis; assay type: ADME, organism-based; settings: read-out: K(p,uu,brain)
[5] = Initial plasma concentration in C57BL6 mouse plasma at 0.5 mg/kg, iv single administration measured upto 24 hrs by LC-MS/MS analysis; assay type: ADME, organism-based
[6] = target: Tyrosine-protein kinase Lck (Homo sapiens) (UniProt P06239); test: Inhibition of LCK (unknown origin) at 1 uM by ADP-Glo kinase assay relative to control
[7] = AUC in C57BL6 mouse brain at 0.5 mg/kg, iv single administration measured upto 24 hrs by LC-MS/MS analysis; assay type: ADME, organism-based; set-up: dose 0.5 mg/kg, time < 24 hrs, route iv
[8] = AUC in C57BL6 mouse brain assessed as free brain drug at 0.5 mg/kg, iv single administration measured upto 24 hrs by LC-MS/MS analysis; assay type: ADME, organism-based; set-up: dose 0.5 mg/kg, time < 24 hrs, route iv; settings: in vivo
[9] = target: T1, Interleukin-1 receptor-associated kinase 3 (Homo sapiens) (UniProt Q9Y616); test: Inhibition of IRAK3 (unknown origin) at 1 uM by ADP-Glo kinase assay relative to control
T1 sequence (whole entry): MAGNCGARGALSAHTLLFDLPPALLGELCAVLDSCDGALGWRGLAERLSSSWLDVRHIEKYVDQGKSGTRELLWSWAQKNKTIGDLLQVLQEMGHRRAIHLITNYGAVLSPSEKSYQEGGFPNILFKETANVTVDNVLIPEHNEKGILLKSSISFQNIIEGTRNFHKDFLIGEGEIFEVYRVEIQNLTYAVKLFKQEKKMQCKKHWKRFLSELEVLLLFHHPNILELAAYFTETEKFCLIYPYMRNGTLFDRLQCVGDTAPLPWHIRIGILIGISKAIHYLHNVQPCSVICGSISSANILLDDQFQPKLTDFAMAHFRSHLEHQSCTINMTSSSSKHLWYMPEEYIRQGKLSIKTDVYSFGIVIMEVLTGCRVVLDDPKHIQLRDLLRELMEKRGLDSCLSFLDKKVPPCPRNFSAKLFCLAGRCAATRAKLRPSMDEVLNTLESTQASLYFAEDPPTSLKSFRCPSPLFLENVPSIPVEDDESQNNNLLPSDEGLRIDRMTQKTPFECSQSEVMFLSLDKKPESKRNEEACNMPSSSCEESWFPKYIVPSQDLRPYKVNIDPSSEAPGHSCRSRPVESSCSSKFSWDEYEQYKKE

[10] = target: Receptor-interacting serine/threonine-protein kinase 2 (Homo sapiens) (UniProt O43353); test: Inhibition of RIPK2 (unknown origin) at 1 uM by ADP-Glo kinase assay relative to control
[11] = target: Leucine-rich repeat serine/threonine-protein kinase 2 (Homo sapiens) (UniProt Q5S007); test: Inhibition of LRRK2 (unknown origin) at 1 uM by ADP-Glo kinase assay relative to control
[12] = AUC (0 to last) in C57BL6 mouse brain at 0.5 mg/kg, iv single administration measured upto 24 hrs by LC-MS/MS analysis; assay type: ADME, organism-based; set-up: time < 24 hrs, dose 0.5 mg/kg, route iv
[13] = Metabolic stability in human liver microsomes assessed as stability measured after 30 mins by LC-MS/MS analysis; assay type: ADME, Microsome; settings: read-out: Drug metabolism
[14] = Plasma protein binding in CD-1 ISG mouse plasma measured after 4 hrs by equilibrium dialysis based LC-MS/MS analysis; assay type: ADME, cell-free; settings: read-out: PPB (converted)
[15] = In vivo stability in iv dosed Hsd:ICR (CD-1) mouse brain assessed as stability measured after 5 mins by radio-HPLC analysis; assay type: ADME, organism-based; settings: read-out: Stability
[16] = In vivo stability in iv dosed Hsd:ICR (CD-1) mouse brain assessed as stability measured after 90 mins by radio-HPLC analysis; assay type: ADME, organism-based; settings: read-out: Stability
[17] = Ex vivo biodistribution in Hsd:ICR (CD-1) mouse assessed as brain uptake at 12.5 to 26.9 MBq, iv measured for 5 to 90 mins in presence of imidazole [1,2-alpha]pyridine by gamma counter analysis; assay type: ADME, organism-based; settings: dose lower 12.5 MBq, time lower 5 min, dose upper 26.9 MBq, time upper 90 min
[18] = In vivo stability in iv dosed Hsd:ICR (CD-1) mouse plasma assessed as stability measured after 5 mins by radio-HPLC analysis; assay type: ADME, organism-based; settings: for remaining at 5 min: Hsd:ICR (CD-1), plasma, read-out: Stability
[19] = Ex vivo biodistribution in Hsd:ICR (CD-1) mouse assessed as blood uptake at 12.5 to 26.9 MBq, iv measured after 90 mins by gamma counter analysis; assay type: ADME, organism-based; settings: dose 12.5-26.9 MBq
[20] = Ex vivo biodistribution in Hsd:ICR (CD-1) mouse assessed as brain uptake at 12.5 to 26.9 MBq, iv measured for 5 to 90 mins by gamma counter analysis; assay type: ADME, organism-based; settings: dose lower 12.5 MBq, time lower 5 min, dose upper 26.9 MBq, time upper 90 min
[21] = In vivo stability in iv dosed Hsd:ICR (CD-1) mouse plasma assessed as stability measured after 45 mins by radio-HPLC analysis; assay type: ADME, organism-based; settings: for remaining at 0.75 h: Hsd:ICR (CD-1), plasma, read-out: Stability
[22] = In vivo stability in iv dosed Hsd:ICR (CD-1) mouse plasma assessed as stability measured after 90 mins by radio-HPLC analysis; assay type: ADME, organism-based; settings: for Stability: in vivo, iv
[23] = Ex vivo biodistribution in Hsd:ICR (CD-1) mouse assessed as brain uptake at 12.5 to 26.9 MBq, iv measured for 5 mins by gamma counter analysis; assay type: ADME, organism-based; settings: dose 12.5-26.9 MBq
[24] = Biodistribution in Hsd:ICR (CD-1) mouse assessed as brain uptake at 12.5 to 26.9 MBq, iv in presence of imidazole [1,2-alpha]pyridine measured at early time points by PET imaging analysis; assay type: ADME, organism-based; settings: in vivo, dose 12.5-26.9 MBq
[25] = Ex vivo biodistribution in Hsd:ICR (CD-1) mouse assessed as thigh bone uptake at 12.5 to 26.9 MBq, iv measured after 90 mins by gamma counter analysis; assay type: ADME, organism-based; settings: dose 12.5-26.9 MBq
[26] = Ex vivo biodistribution in Hsd:ICR (CD-1) mouse assessed as thigh bone uptake at 12.5 to 26.9 MBq, iv measured for 5 mins by gamma counter analysis; assay type: ADME, organism-based; settings: dose 12.5-26.9 MBq
[27] = In vivo stability in iv dosed Hsd:ICR (CD-1) mouse brain assessed as stability measured after 5 to 90 mins by radio-HPLC analysis; assay type: ADME, organism-based; settings: time 5-90 min
[28] = AUC in C57BL6 mouse brain assessed as free brain drug at 1 mg/kg, iv single administration measured upto 24 hrs by LC-MS/MS analysis; assay type: ADME, organism-based; set-up: time < 24 hrs, dose 1 mg/kg, route iv; settings: in vivo
[29] = AUC in C57BL6 mouse brain at 1 mg/kg, iv single administration measured upto 24 hrs by LC-MS/MS analysis; assay type: ADME, organism-based; set-up: time < 24 hrs, dose 1 mg/kg, route iv
[30] = Ratio of total drug brain AUC to total plasma AUC in C57BL6 mouse brain at 1 mg/kg, iv single administration measured upto 24 hrs by LC-MS/MS analysis; assay type: ADME, organism-based
[31] = Initial plasma concentration in C57BL6 mouse plasma at 1 mg/kg, iv single administration measured upto 24 hrs by LC-MS/MS analysis; assay type: ADME, organism-based
[32] = Half life in C57BL6 mouse brain at 1 mg/kg, iv single administration measured upto 24 hrs by LC-MS/MS analysis; assay type: ADME, organism-based
[33] = AUC (0 to last) in C57BL6 mouse brain at 1 mg/kg, iv single administration measured upto 24 hrs by LC-MS/MS analysis; assay type: ADME, organism-based; set-up: time < 24 hrs, dose 1 mg/kg, route iv

Chain of Receptor-interacting serine/threonine-protein kinase 2 (Homo sapiens) (O43353 whole entry): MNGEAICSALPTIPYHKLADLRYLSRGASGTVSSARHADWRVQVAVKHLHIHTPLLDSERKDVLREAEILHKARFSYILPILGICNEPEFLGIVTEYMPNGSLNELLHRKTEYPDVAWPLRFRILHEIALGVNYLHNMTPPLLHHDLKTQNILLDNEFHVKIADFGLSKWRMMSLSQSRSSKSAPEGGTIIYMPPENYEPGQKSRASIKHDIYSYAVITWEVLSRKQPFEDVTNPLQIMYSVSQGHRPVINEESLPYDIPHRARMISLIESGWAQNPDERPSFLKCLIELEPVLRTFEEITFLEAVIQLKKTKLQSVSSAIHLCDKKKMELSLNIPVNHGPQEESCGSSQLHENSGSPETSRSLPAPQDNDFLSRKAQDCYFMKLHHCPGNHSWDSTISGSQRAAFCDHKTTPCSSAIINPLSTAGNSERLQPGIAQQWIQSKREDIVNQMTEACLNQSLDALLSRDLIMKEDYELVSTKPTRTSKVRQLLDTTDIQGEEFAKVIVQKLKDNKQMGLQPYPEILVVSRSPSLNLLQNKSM
Chain of Interleukin-1 receptor-associated kinase 1 (Homo sapiens) (P51617 whole entry, looked up): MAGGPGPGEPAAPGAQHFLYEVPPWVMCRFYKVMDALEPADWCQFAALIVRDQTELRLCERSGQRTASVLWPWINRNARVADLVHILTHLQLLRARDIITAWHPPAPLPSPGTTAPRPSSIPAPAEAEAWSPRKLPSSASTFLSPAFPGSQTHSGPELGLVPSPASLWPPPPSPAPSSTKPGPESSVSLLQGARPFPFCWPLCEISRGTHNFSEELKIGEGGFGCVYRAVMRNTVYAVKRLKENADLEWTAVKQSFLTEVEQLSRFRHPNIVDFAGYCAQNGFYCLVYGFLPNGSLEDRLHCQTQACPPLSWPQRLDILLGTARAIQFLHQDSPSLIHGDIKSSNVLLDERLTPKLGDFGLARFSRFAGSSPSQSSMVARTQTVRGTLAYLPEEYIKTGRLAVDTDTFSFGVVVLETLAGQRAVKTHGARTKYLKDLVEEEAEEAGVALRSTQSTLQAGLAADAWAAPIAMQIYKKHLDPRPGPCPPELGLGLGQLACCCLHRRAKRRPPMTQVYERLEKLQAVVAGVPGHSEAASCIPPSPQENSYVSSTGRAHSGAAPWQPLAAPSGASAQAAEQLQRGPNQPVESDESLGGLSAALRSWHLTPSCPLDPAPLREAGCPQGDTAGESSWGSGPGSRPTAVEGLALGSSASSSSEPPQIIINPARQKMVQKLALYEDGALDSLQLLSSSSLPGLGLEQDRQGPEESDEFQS
Chain of Tyrosine-protein kinase Lck (Homo sapiens) (P06239 2-509 limits assumed): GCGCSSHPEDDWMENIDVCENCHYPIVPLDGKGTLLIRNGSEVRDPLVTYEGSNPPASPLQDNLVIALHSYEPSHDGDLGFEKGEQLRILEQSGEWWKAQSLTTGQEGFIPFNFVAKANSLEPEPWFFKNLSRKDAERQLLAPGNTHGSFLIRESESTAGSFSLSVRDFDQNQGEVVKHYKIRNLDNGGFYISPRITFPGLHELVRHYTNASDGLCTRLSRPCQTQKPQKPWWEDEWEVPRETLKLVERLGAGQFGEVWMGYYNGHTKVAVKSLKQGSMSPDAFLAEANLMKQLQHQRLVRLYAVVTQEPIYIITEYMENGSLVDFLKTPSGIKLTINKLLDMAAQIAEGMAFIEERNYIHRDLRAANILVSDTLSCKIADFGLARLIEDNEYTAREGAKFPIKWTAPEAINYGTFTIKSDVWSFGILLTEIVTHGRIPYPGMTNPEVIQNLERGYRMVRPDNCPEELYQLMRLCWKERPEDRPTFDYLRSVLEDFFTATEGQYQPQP
Chain of Leucine-rich repeat serine/threonine-protein kinase 2 (Homo sapiens) (Q5S007 whole entry): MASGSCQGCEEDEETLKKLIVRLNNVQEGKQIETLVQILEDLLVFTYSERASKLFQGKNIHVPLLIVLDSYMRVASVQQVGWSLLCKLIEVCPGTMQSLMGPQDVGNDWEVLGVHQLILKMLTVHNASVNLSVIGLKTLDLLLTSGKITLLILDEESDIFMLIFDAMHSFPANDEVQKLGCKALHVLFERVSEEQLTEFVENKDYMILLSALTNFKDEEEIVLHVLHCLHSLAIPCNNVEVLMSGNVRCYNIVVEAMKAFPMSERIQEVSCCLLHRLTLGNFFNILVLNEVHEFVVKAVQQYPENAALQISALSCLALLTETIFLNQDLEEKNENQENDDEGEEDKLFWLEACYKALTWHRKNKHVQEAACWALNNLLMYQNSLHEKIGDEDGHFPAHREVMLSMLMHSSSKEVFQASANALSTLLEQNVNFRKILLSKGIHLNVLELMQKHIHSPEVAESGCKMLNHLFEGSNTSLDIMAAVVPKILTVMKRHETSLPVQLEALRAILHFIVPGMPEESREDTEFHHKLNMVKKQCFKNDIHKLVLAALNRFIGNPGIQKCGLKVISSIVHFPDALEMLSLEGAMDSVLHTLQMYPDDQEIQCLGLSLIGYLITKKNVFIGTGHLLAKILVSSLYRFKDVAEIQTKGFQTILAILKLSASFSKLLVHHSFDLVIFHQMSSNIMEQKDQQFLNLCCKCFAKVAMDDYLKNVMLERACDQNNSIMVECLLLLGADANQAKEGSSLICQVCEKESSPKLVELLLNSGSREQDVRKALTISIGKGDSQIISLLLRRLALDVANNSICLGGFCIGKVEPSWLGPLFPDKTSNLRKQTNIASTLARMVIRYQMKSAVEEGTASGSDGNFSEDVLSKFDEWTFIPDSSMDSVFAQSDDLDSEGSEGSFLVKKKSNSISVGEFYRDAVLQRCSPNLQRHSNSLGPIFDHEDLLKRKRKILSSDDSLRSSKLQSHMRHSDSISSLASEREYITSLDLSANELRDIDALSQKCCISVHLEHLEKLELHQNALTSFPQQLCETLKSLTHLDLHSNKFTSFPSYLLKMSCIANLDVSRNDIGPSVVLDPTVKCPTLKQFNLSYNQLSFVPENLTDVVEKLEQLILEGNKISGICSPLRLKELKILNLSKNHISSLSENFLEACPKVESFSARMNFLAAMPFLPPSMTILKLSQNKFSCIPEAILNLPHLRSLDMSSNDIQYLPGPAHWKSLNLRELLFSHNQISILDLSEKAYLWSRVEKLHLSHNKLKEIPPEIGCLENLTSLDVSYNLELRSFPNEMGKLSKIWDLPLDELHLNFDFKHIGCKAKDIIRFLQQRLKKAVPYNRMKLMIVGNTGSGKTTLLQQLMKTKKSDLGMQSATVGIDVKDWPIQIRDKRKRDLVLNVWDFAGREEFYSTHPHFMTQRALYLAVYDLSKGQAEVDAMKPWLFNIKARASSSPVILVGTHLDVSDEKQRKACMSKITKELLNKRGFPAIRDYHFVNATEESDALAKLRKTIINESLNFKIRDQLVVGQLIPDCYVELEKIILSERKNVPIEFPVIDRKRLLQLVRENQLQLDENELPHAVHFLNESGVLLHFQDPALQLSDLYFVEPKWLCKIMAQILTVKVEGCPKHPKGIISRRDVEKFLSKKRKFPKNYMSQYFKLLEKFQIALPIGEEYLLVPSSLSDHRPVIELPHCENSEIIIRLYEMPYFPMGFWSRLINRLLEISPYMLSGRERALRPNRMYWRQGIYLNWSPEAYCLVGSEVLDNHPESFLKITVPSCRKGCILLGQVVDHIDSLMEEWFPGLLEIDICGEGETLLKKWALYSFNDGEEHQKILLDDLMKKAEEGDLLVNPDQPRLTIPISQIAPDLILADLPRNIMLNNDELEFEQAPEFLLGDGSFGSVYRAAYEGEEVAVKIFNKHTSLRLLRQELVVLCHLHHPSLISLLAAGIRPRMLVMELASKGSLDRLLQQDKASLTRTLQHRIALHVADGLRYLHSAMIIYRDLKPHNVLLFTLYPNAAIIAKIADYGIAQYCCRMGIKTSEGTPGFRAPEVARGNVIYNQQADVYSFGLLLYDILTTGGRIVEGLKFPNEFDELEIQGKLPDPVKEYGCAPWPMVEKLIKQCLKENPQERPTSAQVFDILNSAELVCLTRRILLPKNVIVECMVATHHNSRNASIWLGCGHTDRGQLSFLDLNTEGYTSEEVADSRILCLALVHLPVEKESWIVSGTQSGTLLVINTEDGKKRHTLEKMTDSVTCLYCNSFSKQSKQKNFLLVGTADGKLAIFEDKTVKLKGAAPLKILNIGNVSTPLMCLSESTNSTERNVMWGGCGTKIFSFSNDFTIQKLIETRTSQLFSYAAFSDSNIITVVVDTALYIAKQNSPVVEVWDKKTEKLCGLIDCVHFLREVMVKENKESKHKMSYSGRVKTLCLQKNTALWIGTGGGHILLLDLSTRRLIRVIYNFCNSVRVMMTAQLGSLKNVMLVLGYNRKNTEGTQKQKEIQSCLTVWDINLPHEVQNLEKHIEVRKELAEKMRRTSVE

Row | SMILES | remaining at 0.5 h [13] [%] | fraction unbound at 4 h [14] | remaining at 5 min [15] [%] | remaining at […] [16] [%] | Drug uptake [17] | remaining at 5 min [18] [%] | Drug uptake [19] [% ID/g] | Drug uptake [20] | remaining at 0.75 h [21] [%] | Stability [22] | Drug uptake [23] [% ID/g] | AUC [28] [ng·h/mL] | AUC at 24 h [29] [ng·h/mL] | Kp at 24 h [30] | C0 at 24 h [31] [ng/mL] | half-life [32] [min] | AUC(0-t) at 24 h [33] [ng·h/mL] | other results
1 | Cc1cc(F)ncc1-c1ccc2nc(NC(=O)[C@@H]3C[C@@H]3F)sc2c1 | < 30 | 0.0192 | – | – | – | – | – | – | – | – | – | – | – | – | – | – | – | half-life [1]: 540 min; Kp at 24 h [2]: 0.49; inhibition [3]: > 80%; Kp uu at 24 h [4]: 0.15; C0 at 24 h [5]: 1580 ng/mL; inhibition [6]: > 80%; AUC at 24 h [7]: 1670 ng·h/mL; AUC [8]: 10 ng·h/mL; inhibition [9]: > 80%; inhibition [10]: > 80%; inhibition [11]: > 80%; AUC(0-t) at 24 h [12]: 3380 ng·h/mL
2 | O=C(Nc1cn2cc(-c3cccc(F)c3OCC[18F])ccc2n1)[C@@H]1C[C@@H]1F | – | – | 88 | 33 | Active | 64 | 0.2 | Active | 18 | Unstable | 1.1 | – | – | – | – | – | – | –
3 | O=C(Nc1cn2cc(-c3ccccc3CC[18F])ccc2n1)[C@@H]1C[C@@H]1F | – | – | 93 | 8.5 | Active | 72 | 0.3 | Active | 13 | Unstable | 3.1 | – | – | – | – | – | – | Drug uptake [24]: Active; Drug uptake [25]: 2.7 % ID/g; Drug uptake [26]: 1.6 % ID/g
4 | Cc1cc([18F])ncc1-c1ccc2nc(NC(=O)[C@@H]3C[C@@H]3F)sc2c1 | – | – | – | – | Active | – | 1.2 | Active | – | – | 4.2 | – | – | – | – | – | – | Stability [27]: 99.42%; Stability ([18]; in vivo, iv, 5 min): Stable; Stability ([21]; in vivo, iv, 0.75 h): Stable; remaining at […] ([22]; Hsd:ICR (CD-1), plasma, read-out: Stability): 91%
5 | O=C(Nc1cn2cc(-c3cccc(F)c3OCCF)ccc2n1)[C@@H]1C[C@@H]1F | < 30 | 0.0692 | – | – | – | – | – | – | – | – | – | 4 | 112 | 0.21 | 536 | 30 | 536 | –
6 | O=C(Nc1cn2cc(-c3ccccc3CCF)ccc2n1)[C@@H]1C[C@@H]1F | < 30 | 0.0734 | – | – | – | – | – | – | – | – | – | 5 | 182 | 0.31 | 597 | 12 | 597 | –
